Patent US8519149B2, “Tricyclic compounds as mPGES-1 inhibitors” (Glenmark Pharmaceuticals S.A., priority 2010, dated 2013)

Molecular target: T1, Recombinant human mPGES-1 (Homo sapiens, UniProt O14684)
T1 sequence (O14684 1-152): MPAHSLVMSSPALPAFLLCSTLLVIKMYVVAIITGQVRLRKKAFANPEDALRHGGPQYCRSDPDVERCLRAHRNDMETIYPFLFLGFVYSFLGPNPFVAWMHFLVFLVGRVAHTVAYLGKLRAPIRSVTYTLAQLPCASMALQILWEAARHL
Assay: In-vitro mPGES-1 enzyme inhibition assay (PGE2 formation from PGH2, HTRF detection)
Assay type: biochemical
Details: for inhibition at 1 µM: 1 μM test compound, read-out: Percentage inhibition at 1 μM; for inhibition at 1 µM / inhibition at 10 µM: recombinant human mPGES-1 microsomal fraction; for inhibition at 10 µM: 10 μM test compound, read-out: Percentage inhibition at 10 μM; for IC50: class symbols, selected examples
Excerpt: In-Vitro Protocol for Screening of mPGES-1 Inhibitors: mPGES-1 (microsomal prostaglandin E synthase-1) is a microsomal enzyme that converts endoperoxide substrate PGH2 (prostaglandin H2) to product PGE2 (prostaglandin E2) by isomerization in the presence of reduced glutathione (GSH). mPGES-1 inhibitors were screened by assessing their ability to inhibit formation of PGE2 from PGH2 in presence of mPGES-1 using anti-PGE2 antibody based detection method. […] Assay was set up using crude microsomal fractions at protein concentration of 40-60 μg/mL. […] Final concentration of DMSO in reaction was 0.5% (v/v). Negative controls comprised of all assay reagents except the enzyme. Positive controls comprised of enzyme reaction in the absence of any inhibitor. […] Reaction was stopped by addition of Stannous chloride (11 mg/ml) and PGE2 levels were measured ([…] et al. […] Inhibition of mPGES-1 enzyme activity was measured using percent of reaction occurring in the positive control. Concentration response curves were plotted using percent inhibition of maximum enzyme reaction. IC50 value was calculated from concentration response curve by nonlinear regression analysis using GraphPad PRISM software.

SMILES | inhibition at 1 µM | inhibition at 10 µM | IC50
Cc1cc2c(o1)c(C(=O)NCC1CC1)cc1nc(Nc3c(Cl)cccc3Cl)[nH]c12 [Example-57, N-(Cyclopropylmethyl)-2-[(2,6-dichlorophenyl)amino]-7-methyl-1H-furo[3,2-e]benzimidazole-5-carboxamide] | 61.7% | 88.2% | 
Cc1ccc(Nc2nc3cc(C(=O)Nc4ccc(C(F)(F)F)cc4)c4c(c3[nH]2)CC(C)(C)O4)c(C)n1 [Example-103, 2-[(2,6-Dimethylpyridin-3-yl)amino]-7,7-dimethyl-N-[4-(trifluoromethyl)phenyl]-7,8-dihydro-1H-furo[3,2-e]benzimidazole-5-carboxamide] | 7.88% | 25.8% | 
Cc1cc2c(o1)c(C(=O)NCc1ccc(F)cc1)cc1nc(Nc3c(Cl)cccc3Cl)[nH]c12 [Example-35, 2-[(2,6-Dichlorophenyl)amino]-N-(4-fluorobenzyl)-7-methyl-1H-furo[3,2-e]benzimidazole-5-carboxamide] | 89.3% | 99.1% | 
Cc1ccc(NC(=O)c2cc3nc(Nc4c(F)cccc4Cl)[nH]c3c3c2OC(C)(C)C3)c(F)c1 [Example-128, 2-((2-Chloro-6-fluorophenyl)amino)-N-(2-fluoro-4-methylphenyl)-7,7-dimethyl-7,8-dihydro-1H-benzofuro[4,5-d]imidazole-5-carboxamide] | 90.5% | 94% | < 50 nM
CC1(C)Cc2c(c(C(=O)NCc3ccccc3C(F)(F)F)cc3nc(Nc4ccccc4Cl)[nH]c23)O1 [Example-88, 2-[(2-Chlorophenyl)amino]-7,7-dimethyl-N-[2-(trifluoromethyl)benzyl]-7,8-dihydro-1H-furo[3,2-e]benzimidazole-5-carboxamide] | 85.5% | 99.4% | > 100 nM
Cc1cc2c(o1)c(C(=O)Nc1ccc(C(F)(F)F)cc1)cc1nc(Nc3c(Cl)cncc3Cl)[nH]c12 [Example-32, 2-[(3,5-Dichloropyridin-4-yl)amino]-7-methyl-N-[4-(trifluoromethyl)phenyl]-1H-furo[3,2-e]benzimidazole-5-carboxamide] | 99% | 100% | 
CC1(C)Cc2c(c(C(=O)Nc3ccc(OC(F)F)nc3)cc3nc(Nc4c(F)cccc4Cl)[nH]c23)O1 [Example-115, 2-[(2-Chloro-6-fluorophenyl)amino]-N-[6-(difluoromethoxy)pyridin-3-yl]-7,7-dimethyl-7,8-dihydro-1H-furo[3,2-e]benzimidazole-5-carboxamide] | 100% | 100% | < 50 nM
Cc1cc2c(o1)c(C(=O)NC1CCCCC1)cc1nc(Nc3ccccc3Cl)[nH]c12 [Example-16, 2-[(2-Chlorophenyl)amino]-N-cyclohexyl-7-methyl-1H-furo[3,2-e]benzimidazole-5-carboxamide] | 73.5% | 94.9% | 
CC1(C)Cc2c(c(C(=O)Nc3nc4ccc(F)cc4s3)cc3nc(Nc4c(Cl)cccc4Cl)[nH]c23)O1 [Example-95, 2-[(2,6-Dichlorophenyl)amino]-N-(6-fluoro-1,3-benzothiazol-2-yl)-7,7-dimethyl-7,8-dihydro-1H-furo[3,2-e]benzimidazole-5-carboxamide] | 90.6% | 91.8% | < 50 nM
Cc1cc2c(o1)c(C(=O)Nc1ccc(F)cc1)cc1nc(Nc3c(Cl)cncc3Cl)[nH]c12 [Example-36, 2-[(3,5-Dichloropyridin-4-yl)amino]-N-(4-fluorophenyl)-7-methyl-1H-furo[3,2-e]benzimidazole-5-carboxamide] | 92.4% | 99.3% | > 100 nM
Cc1cc2c(o1)c(C(=O)NC(C)(C)CC(C)(C)C)cc1nc(Nc3c(Cl)cncc3Cl)[nH]c12 [Example-34, 2-[(3,5-Dichloropyridin-4-yl)amino]-7-methyl-N-(2,4,4-trimethylpentan-2-yl)-1H-furo[3,2-e]benzimidazole-5-carboxamide] | 95.5% | 98.7% | < 50 nM
CC1(C)Cc2c(c(C(=O)Nc3ccc(F)cc3C(F)(F)F)cc3nc(Nc4c(F)cccc4Cl)[nH]c23)O1 [Example-117, 2-[(2-Chloro-6-fluorophenyl)amino]-N-[4-fluoro-2-(trifluoromethyl)phenyl]-7,7-dimethyl-7,8-dihydro-1H-furo[3,2-e]benzimidazole-5-carboxamide] | 100% | 98.7% | < 50 nM
CC1(C)Cc2c(c(C(=O)Nc3ccc(C(F)(F)F)cc3F)cc3nc(Nc4c(F)cccc4Cl)[nH]c23)O1 [Example-112, 2-[(2-Chloro-6-fluorophenyl)amino]-N-[2-fluoro-4-(trifluoromethyl)phenyl]-7,7-dimethyl-7,8-dihydro-1H-furo[3,2-e]benzimidazole-5-carboxamide] | 96.8% | 96.2% | < 50 nM
Cc1nnc(NC(=O)c2cc3nc(Nc4c(Cl)cccc4Cl)[nH]c3c3c2OC(C)(C)C3)s1 [Example-38, 2-[(2,6-Dichlorophenyl)amino]-7,7-dimethyl-N-(5-methyl-1,3,4-thiadiazol-2-yl)-7,8-dihydro-1H-furo[3,2-e]benzimidazole-5-carboxamide] | 74.5% | 81.5% | 
CC1(C)Cc2c(c(C(=O)NC3CCCCC3)cc3nc(Nc4c(Cl)cncc4Cl)sc23)O1 [Example-28, N-Cyclohexyl-2-[(3,5-dichloropyridin-4-yl)amino]-7,7-dimethyl-7,8-dihydrofuro[2,3-g][1,3]benzothiazole-5-carboxamide] | 87.3% | 98.9% | > 100 nM

Further lines, results first:

inhibition at 1 µM | inhibition at 10 µM | IC50 | SMILES
98.7% | 97.3% | < 50 nM | Cc1nc2c(o1)c(C(=O)Nc1ccc(C(C)(C)C)cc1)cc1nc(Nc3c(Cl)cccc3Cl)[nH]c12 [Example-180, N-(4-tert-Butylphenyl)-7-[(2,6-dichlorophenyl)amino]-2-methyl-8H-imidazo[4,5-e][1,3]benzoxazole-4-carboxamide]
96.2% | 99.9% |  | Cn1c(Nc2c(Cl)cncc2Cl)nc2cc(C(=O)Nc3cc(C4CC4)ccc3F)c3c(c21)CC(C)(C)O3 [Example-217, N-(5-Cyclopropyl-2-fluorophenyl)-2-((3,5-dichloropyridin-4-yl)amino)-1,7,7-trimethyl-7,8-dihydro-1H-benzofuro[4,5-d]imidazole-5-carboxamide]
99.2% | 100% | 50 to 100 nM | Cc1cccc(Cl)c1Nc1nc2cc(C(=O)Nc3ccc(C(F)(F)F)nc3)c3c(c2[nH]1)CC(C)(C)O3 [Example-160, 2-((2-Chloro-6-methylphenyl)amino)-7,7-dimethyl-N-(6-(trifluoromethyl)pyridin-3-yl)-7,8-dihydro-1H-benzofuro[4,5-d]imidazole-5-carboxamide]
81.5% | 99.8% |  | Cn1c(Nc2c(Cl)cncc2Cl)nc2cc(C(=O)NCC3CC3)c3c(c21)CC(C)(C)O3 [Example-220, N-(Cyclopropylmethyl)-2-((3,5-dichloropyridin-4-yl)amino)-1,7,7-trimethyl-7,8-dihydro-1H-benzofuro[4,5-d]imidazole-5-carboxamide]
96.9% | 95.9% | < 50 nM | CC(C)(C)c1ccc(NC(=O)c2cc3nc(Nc4c(Cl)cccc4Cl)[nH]c3c3nc(C4CC4)oc23)cc1 [Example-184, N-(4-tert-Butylphenyl)-2-cyclopropyl-7-[(2,6-dichlorophenyl)amino]-8H-imidazo[4,5-e][1,3]benzoxazole-4-carboxamide]
97.9% | 97.5% | < 50 nM | Cc1ccc(NC(=O)c2cc3nc(Nc4c(Cl)cccc4Cl)[nH]c3c3c2OC(C)(C)C3)c(F)c1 [Example-142, 2-((2,6-Dichlorophenyl)amino)-N-(2-fluoro-4-methylphenyl)-7,7-dimethyl-7,8-dihydro-1H-benzofuro[4,5-d]imidazole-5-carboxamide]
88.3% | 97.1% | < 50 nM | CC1(C)Cc2c(c(C(=O)NCc3ccc(F)cc3C(F)(F)F)cc3nc(Nc4c(F)cccc4Cl)[nH]c23)O1 [Example-129, 2-((2-Chloro-6-fluorophenyl)amino)-N-(4-fluoro-2-(trifluoromethyl)benzyl)-7,7-dimethyl-7,8-dihydro-1H-benzofuro[4,5-d]imidazole-5-carboxamide]
97.8% | 98.5% |  | Cn1c(Nc2c(Cl)cncc2Cl)nc2cc(C(=O)Nc3ccc(C(F)(F)F)cn3)c3c(c21)CC(C)(C)O3 [Example-219, 2-((3,5-Dichloropyridin-4-yl)amino)-1,7,7-trimethyl-N-(5-(trifluoromethyl)pyridin-2-yl)-7,8-dihydro-1H-benzofuro[4,5-d]imidazole-5-carboxamide]
